This is an account of results in publication PMC7380166, “How to Study the Metabolism of New Psychoactive Substances for the Purpose of Toxicological Screenings—A Follow-Up Study Comparing Pooled Human Liver S9, HepaRG Cells, and Zebrafish Larvae” (Frontiers in Chemistry, 2020).

The nature of data set [1]: Esterases activity screening, pooled human blood plasma. It is filed as in vitro ADME. The arrangement: key: +, detected; –, not detected. The conditions noted are these: 100 μM 4F-MDMB-BINACA, duplicate. As for the experimental part: (§1) Experiments were performed in accordance with a previous study (Meyer et al., [2015]) with minor modifications. The final volume per reaction tube was 100 μl with a final 4F-MDMB-BINACA concentration of 100 μM and enzyme concentration of 0.2 mg protein/ml for hCES1b, hCES1c, and hCES2. Incubations with pHLM and pHLS9 (0.2 mg protein/ml, each) were performed in a similar manner. Additionally, incubations with human plasma (50 μl pooled human plasma, 40 μl phosphate buffer, and 10 μl substrate) were performed. The reactions were started by adding the enzyme-containing preparation and terminated with an equal volume of ice-cold acetonitrile containing diazepam-d5 (100 μM) as an internal standard. Only plasma incubations were terminated by addition of a three-fold volume of ice-cold acetonitrile. The reaction mixtures were centrifuged at 18,407 × g for 15 min, and then supernatants were transferred to autosampler vials, and 5 μl was injected onto the LC-HRMS/MS system. Negative control incubations without enzyme were prepared to identify non-metabolically formed compounds. All incubations were done in duplicate.

Data set [2] is described as follows: Esterases activity screening, pHLM. The arrangement: key: +, detected; –: −, not detected. It is filed as in vitro ADME, human. The conditions noted are these: 100 μM 4F-MDMB-BINACA, 0.2 mg protein/ml, duplicate. How it is done:
as §1

The next data set concerns the target T1, hCES2 (Homo sapiens, UniProt O00748).
T1 construct: purchased Corning
T1 sequence (O00748 27-559): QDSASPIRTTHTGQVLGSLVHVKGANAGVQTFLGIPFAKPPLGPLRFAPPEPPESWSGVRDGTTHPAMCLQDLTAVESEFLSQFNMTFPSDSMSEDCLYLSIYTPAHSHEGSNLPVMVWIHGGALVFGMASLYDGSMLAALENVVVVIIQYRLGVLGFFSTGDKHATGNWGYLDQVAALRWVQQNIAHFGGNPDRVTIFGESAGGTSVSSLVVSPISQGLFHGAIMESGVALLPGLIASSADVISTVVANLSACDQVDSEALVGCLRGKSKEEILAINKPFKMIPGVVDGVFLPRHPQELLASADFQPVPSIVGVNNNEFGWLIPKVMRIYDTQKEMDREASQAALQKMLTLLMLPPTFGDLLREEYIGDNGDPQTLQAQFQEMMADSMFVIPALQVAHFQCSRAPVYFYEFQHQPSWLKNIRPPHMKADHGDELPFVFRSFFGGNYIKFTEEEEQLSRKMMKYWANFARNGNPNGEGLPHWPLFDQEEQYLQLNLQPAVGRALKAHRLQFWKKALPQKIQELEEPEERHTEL
In words: Esterases activity screening, hCES2. Type of data set: in vitro ADME. More on the design: key: +, detected; –, not detected. To be noted: 100 μM 4F-MDMB-BINACA, 0.2 mg protein/ml, duplicate. How it is done:
as §1

The nature of data set [3]: Authentic human urine sample after intake of 4F-MDMB-BINACA, LC-HRMS/MS. It is filed as in vivo. To be noted: one patient, unknown dose and time point of intake. How it is done:
Human blood and urine collected after a suspected intake of drugs of abuse were submitted to the authors' laboratory for regular clinical toxicological analysis. The blood sample was centrifuged, and plasma was separated. The authors' standard liquid–liquid extraction for human plasma screening was used (Maurer et al., [2016]). Briefly, 1,000 μl of plasma was mixed with 100 μl of internal standard (0.01 μg/μl trimipramine-d3 in methanol) and extracted with 5,000 μl of a mixture of diethyl ether:ethyl acetate (1:1, v/v) after addition of 2,000 μl of saturated sodium sulfate solution. Phase separation was mediated by centrifugation. The organic layer was transferred into a flask and evaporated to dryness at 60°C under reduced pressure. The aqueous residue was then alkalized with 500 μl of 1 M sodium hydroxide and extracted a second time with 5,000 μl of the diethyl ether:ethyl acetate mixture. The organic extract was transferred to the same flask and evaporated as described before. The combined residues were dissolved in 100 μl of methanol and transferred into an autosampler vial, and 5 μl was injected onto the LC-HRMS/MS system. An aliquot of the human urine sample (100 μl) was prepared according to a previous study by precipitation with 500 μl of acetonitrile (Wissenbach et al., [2011]). The mixture was shaken and centrifuged (18,407 × g, 2 min). […]

As to `CC(C)(C)C(NC(=O)c1nn(CCCCF)c2ccccc12)C(=O)O` (stereo not shown) [MB8], the “Detection of metabolite in incubation with pHBP” value in data set [1] is reported as “–”. The “Detection of metabolite in incubation with pHLM” value in data set [2] was “+”. Further, the “Detection of metabolite in incubation with hCES2” value on hCES2 is “–”.
Turning to `O=C(O)c1nn(CCCCF)c2ccccc12` [MB1], the “Detection of metabolite in incubation with pHBP” value in data set [1] is recorded as “–”. Further, in data set [2], the “Detection of metabolite in incubation with pHLM” value is recorded as “+”. Besides, at hCES2, the “Detection of metabolite in incubation with hCES2” value was “–”.
Regarding `COC(=O)C(NC(=O)c1nn(CCCCF)c2ccccc12)C(C)(C)C` (stereo not shown) [4F-MDMB-BINACA, methyl 2-[1-(4-fluorobutyl)-1H-indazole-3-carbonyl]amino-3,3-dimethylbutanoate], the “Detectability of the parent compound in urine” value in data set [3] was “barely detectable”.
